Test results published in patent EP4567031A1, “HPK1 INHIBITOR, PREPARATION METHOD THEREFOR, AND USE THEREOF” (Beijing Earthwise Technology Co., Ltd., priority 2022, dated 2024).

biological target: HPK1 (Homo sapiens, UniProt Q92918); experiment: HPK1 HTRF kinase assay; assay type: biochemical; conditions: 1000 µM ATP; 50 nM HPK1; STK1 substrate; read-out: HPK1, IC50
Method: The reaction was initiated by adding 50 nM HPK1. After 120 minutes of reaction, the assay was terminated by adding 10 µL of Detection Mix.
The ratio of the signal at 665 nm to the signal at 615 nm was converted to the percentage of inhibition. Inhibition % = (maximum value - sample value) / (maximum value - minimum value)×100. The minimum value refers to the value measured in a well without enzyme but with DMSO and substrate, and the maximum value refers to the value measured in a well with DMSO, enzyme and substrate. IC50 values were calculated by XLFit (version 5.3.1.3) in Excel. Equation: Y = Bottom + (Top - Bottom) / (1 + (IC50/X) ^ HillSlope).

HPK1, sequence (Q92918 whole entry, species assumed): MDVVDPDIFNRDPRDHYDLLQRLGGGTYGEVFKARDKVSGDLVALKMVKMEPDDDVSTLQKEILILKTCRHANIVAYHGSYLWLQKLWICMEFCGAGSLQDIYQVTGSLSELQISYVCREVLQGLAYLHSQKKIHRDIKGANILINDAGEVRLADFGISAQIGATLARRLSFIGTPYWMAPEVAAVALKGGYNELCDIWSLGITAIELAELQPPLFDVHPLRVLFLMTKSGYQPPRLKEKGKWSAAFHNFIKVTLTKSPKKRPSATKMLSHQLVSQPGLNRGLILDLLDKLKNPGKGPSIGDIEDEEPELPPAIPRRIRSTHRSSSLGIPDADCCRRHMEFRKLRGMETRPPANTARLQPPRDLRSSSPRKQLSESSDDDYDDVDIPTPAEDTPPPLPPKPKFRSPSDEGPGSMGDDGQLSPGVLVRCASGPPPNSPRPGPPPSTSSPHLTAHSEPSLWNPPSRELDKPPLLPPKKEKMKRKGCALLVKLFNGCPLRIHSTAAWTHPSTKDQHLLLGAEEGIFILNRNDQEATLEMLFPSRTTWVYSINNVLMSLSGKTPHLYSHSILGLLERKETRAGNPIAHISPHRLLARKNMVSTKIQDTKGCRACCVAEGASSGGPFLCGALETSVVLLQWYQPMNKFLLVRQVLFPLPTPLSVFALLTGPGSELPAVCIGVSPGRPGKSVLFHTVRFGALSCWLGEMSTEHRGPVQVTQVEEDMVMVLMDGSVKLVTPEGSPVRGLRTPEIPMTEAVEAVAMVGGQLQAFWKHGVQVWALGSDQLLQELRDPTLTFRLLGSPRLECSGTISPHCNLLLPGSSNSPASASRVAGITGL

SMILES	IC50 [nM]
CC1(C)c2cc(N3CCOCC3)c(F)cc2Nc2c1cc(-c1cnn3cccnc13)c1c2C(=O)NC1 [Example 59]	7.78
CC1(C)c2cc(N3CCOCC3)ccc2Nc2c1cc(-c1cnc3n1CCC3)c1c2C(=O)NC1 [Example 86]	7.95
Cn1cccc(Nc2cc3c(c4c2CNC4=O)Nc2ccc(N4CCOCC4)cc2C3(C)C)c1=O [Example 67]	3.93
CC1(C)c2cc(-c3cnn4cccnc34)c3c(c2Nc2ccc(N4CCOCC4)nc21)C(=O)NC3 [Example 29]	10.1
CC1(C)c2cc(N3CCOCC3)ccc2Nc2c1cc(-c1cnc3cc(F)ccn13)c1c2C(=O)NC1 [Example 62]	6.08
CN1CCn2c(-c3cc4c(c5c3CNC5=O)Nc3ccc(N5CCOCC5)cc3C4(C)C)cnc2C1 [Example 78]	35
CC1(C)c2cc(N3CCOC(C(C)(C)O)C3)ccc2Nc2c1cc(-c1cnc3cccnn13)c1c2C(=O)NC1 (centres unmarked) [Example 19]	6.31
CC1(C)c2cc(N3CCOCC3)ccc2Nc2c1cc(-c1nnc3c(C#N)cccn13)c1c2C(=O)NC1 [Example 39]	39
CC1(C)c2cc(C3COCCN3)ccc2Nc2c1cc(-c1cnn3cccnc13)c1c2C(=O)NC1 (centres unmarked) [Example 52]	8.2
Cc1ccnn2c(-c3cc4c(c5c3CNC5=O)Nc3ccc(N5CCOC(C(C)(C)O)C5)cc3C4(C)C)cnc12 (centres unmarked) [Example 33]	11.4
CC1(C)c2cc(-c3cnn4cccnc34)c3c(c2Nc2cccc(OC4CCNC4)c21)C(=O)NC3 (centres unmarked) [Example 58]	4150
COc1ccnc2c(-c3cc4c(c5c3CNC5=O)Nc3ccc(N5CCOCC5)cc3C4(C)C)cnn12 [Example 66]	11.1

same assay, conditions: HPK1, IC50 (nM), 1000 µM ATP; 50 nM HPK1; STK1 substrate

SMILES	IC50 [nM]
Cc1ccn2c(-c3cc4c(c5c3CNC5=O)Nc3ccc(N5CCOC(C(C)(C)O)C5)cc3C4(C)C)cnc2c1F (single isomer, unassigned) [Example 89]	8.13
COC1CCCn2c(-c3cc4c(c5c3CNC5=O)Nc3ccc(N5CCOCC5)cc3C4(C)C)cnc21 (single isomer, unassigned) [Example 91]	4.24

tested on: human Pan T cells; experiment: Human Pan T cell IL-2 ELISA; assay type: cell-based; conditions: Anti-CD3 and Anti-CD28, 48 hours, supernatant IL-2 ELISA, read-out: IL-2 release, EC50
Method: A compound was dissolved in DMSO to 10 mM, and then diluted three-fold with DMSO to 9 dosages in a 96-well plate. Then, 10 µL of the diluted compound sample was transferred to a 96-well plate with 90 µL of cell culture medium, and the plate was shaken for 5 minutes. Then, 5 µL of the diluted compound sample was transferred to a 96-well plate with 120 µL of cell culture medium, and the plate was shaken for 5 minutes. According to the experimental design diagram, 50 µL of the diluted compound sample was transferred to a cell plate. Final concentrations of the compound in this assay were 10000.00, 5000, 2500, 1250, 625, 312.5, 156.25, 78.125 and 39.063 nM.
The assay was conducted in a 96-well plate. On the first day of the assay, Anti-CD3 was added to the 96-well plate and incubated in a 4 °C refrigerator overnight. On the second day of the assay, human Pan T cells were recovered, centrifuged and counted. The cell density was adjusted to 1*10^6 cells/ml. Then, 100 µL of cells were added to the 96-well plate washed with PBS and added with Anti-CD3; according to the experimental design diagram, 50 µL of diluted Anti-CD28 and 50 µL of the diluted compound were added to each well, centrifuged, and the cell plate was placed and incubated in an incubator for 48 hours; after 48 hours, the plate was centrifuged and the supernatant was collected for IL-2 ELISA.
The signal value of light absorption was converted into a multiple. Multiple = sample value/the average value of control wells. The average value of control wells refers to the value measured in wells with DMSO added. EC50 values were calculated by XLFit (version 5.3.1.3) in Excel. Equation: Y=Bottom + (Top-Bottom) / (1 + (EC50/X) ^ HillSlope). Table 6. Results of cellular activity of the compounds

SMILES	EC50 [nM]
Cn1c(-c2cc3c(c4c2CNC4=O)Nc2ccc(N4CCOCC4)cc2C3(C)C)cnc1C1CCCO1 (single isomer, unassigned) [Example 191]	28
CC1(C)c2cc(N3CCOCC3)ccc2Nc2c1cc(-c1cnc3n1CCCC3O)c1c2C(=O)NC1 (single isomer, unassigned) [Example 228]	11
CC1CCCn2c(-c3cc4c(c5c3CNC5=O)Nc3ccc(N5CCOCC5)cc3C4(C)C)cnc21 (single isomer, unassigned) [Example 219]	8.1
CCC1(C)c2cc(N3CCOCC3)ccc2Nc2c1cc(-c1cnc3c(OC)nccn13)c1c2C(=O)NC1 (single isomer, unassigned) [Example 213]	19
COC1CCCn2c(-c3cc4c(c5c3CNC5=O)Nc3ccc(N5CCOCC5C)cc3C4(C)C)cnc21 (single isomer, unassigned) [Example 180]	27

same assay, conditions: Homo sapiens, T-cell, 48 h, Anti-CD3 and Anti-CD28, supernatant IL-2 ELISA, read-out: IL-2 release, EC50

SMILES	EC50 [nM]
CC1(C)c2cc(N3CCOCC3)c(F)cc2Nc2c1cc(-c1cnn3cccnc13)c1c2C(=O)NC1 [Example 59]	6.97
CC1(C)c2cc(N3CCOCC3)ccc2Nc2c1cc(-c1cnc3n1CCC3)c1c2C(=O)NC1 [Example 86]	11.5
Cn1cccc(Nc2cc3c(c4c2CNC4=O)Nc2ccc(N4CCOCC4)cc2C3(C)C)c1=O [Example 67]	14.4
CC1(C)c2cc(-c3cnn4cccnc34)c3c(c2Nc2ccc(N4CCOCC4)nc21)C(=O)NC3 [Example 29]	27.9
CC1(C)c2cc(N3CCOCC3)ccc2Nc2c1cc(-c1cnc3cc(F)ccn13)c1c2C(=O)NC1 [Example 62]	3.02
CN1CCn2c(-c3cc4c(c5c3CNC5=O)Nc3ccc(N5CCOCC5)cc3C4(C)C)cnc2C1 [Example 78]	75.5
CC1(C)c2cc(N3CCOC(C(C)(C)O)C3)ccc2Nc2c1cc(-c1cnc3cccnn13)c1c2C(=O)NC1 (centres unmarked) [Example 19]	2.11
CC1(C)c2cc(N3CCOCC3)ccc2Nc2c1cc(-c1nnc3c(C#N)cccn13)c1c2C(=O)NC1 [Example 39]	16.8
CC1(C)c2cc(C3COCCN3)ccc2Nc2c1cc(-c1cnn3cccnc13)c1c2C(=O)NC1 (centres unmarked) [Example 52]	9.08
CC1(C)c2cc(N3CCOC(C(C)(C)O)C3)ccc2Nc2c1cc(-c1cnc3cc(F)ccn13)c1c2C(=O)NC1 (single isomer, unassigned) [Example 93]	6.33
COc1ccn2c(-c3cc4c(c5c3CNC5=O)Nc3ccc(N5CCOCC5)cc3C4(C)C)cnc2c1F [Example 225]	8.1
Cc1ccn2c(-c3cc4c(c5c3CNC5=O)Nc3ccc(N5CCOC(C(C)(C)O)C5)cc3C4(C)C)cnc2n1 (single isomer, unassigned) [Example 162]	6.33
C#Cc1ccn2c(-c3cc4c(c5c3CNC5=O)Nc3ccc(N5CCOCC5)cc3C4(C)C)cnc2c1 [Example 216]	5.4
COC1CCCn2c(-c3cc4c(c5c3CNC5=O)Nc3ccc(N5CCOCC5C)cc3C4(C)C)cnc21 (single isomer, unassigned) [Example 155]	26.6
CC1(C)c2cc(N3CCOCC3)ccc2Nc2c1cc(-c1cnc3c(=O)n(C(F)F)ccn13)c1c2C(=O)NC1 [Example 258]	6.1
COc1nccn2c(-c3cc4c(c5c3CCNC5=O)Nc3ccc(N5CCOCC5)cc3C4(C)C)cnc12 [Example 280]	13
Cn1cnc2c(-c3cc4c(c5c3CNC5=O)Nc3ccc(N5CCOCC5)cc3C4(C)C)cncc21 [Example 248]	1.9
COC1CCCn2c(-c3cc4c(c5c3CNC5=O)Nc3ccc(C5CCOCC5)cc3C4(C)C)cnc21 (single isomer, unassigned) [Example 163]	25
CCOc1ccc2c(-c3cc4c(c5c3CNC5=O)Nc3ccc(N5CCOC(C(C)(C)O)C5)cc3C4(C)C)cnn2c1 (single isomer, unassigned) [Example 151]	68.8
COc1nccn2c(-c3cc4c(c5c3CNC5=O)Nc3ccc(N5CCOCC5C)cc3C4(C)C)cnc12 (single isomer, unassigned) [Example 244]	9.8

SMILES	EC50 [nM]
COC1CCCn2c(-c3cc4c(c5c3CNC5=O)Nc3ccc(N5CCOCC5)nc3C4(C)C)cnc21 (single isomer, unassigned) [Example 25]	33.4
CC1(C)c2cc(N3CCOCC3)ccc2Nc2c1cc(-c1cnc3cc(C(F)F)ccn13)c1c2C(=O)NC1 [Example 161]	6.36
CC1(C)c2cc(N3CCOC(CO)C3)ccc2Nc2c1cc(-c1cnn3cccnc13)c1c2C(=O)NC1 (centres unmarked) [Example 118]	7.32
CC1(C)c2cc(N3CCOC(C(C)(C)O)C3)ccc2Nc2c1cc(-c1cnc3cc(Cl)ccn13)c1c2C(=O)NC1 (single isomer, unassigned) [Example 125]	7.23
CC1(O)CCN(c2ccc3c(c2)C(C)(C)c2cc(-c4cnc5nc(C(F)F)ccn45)c4c(c2N3)C(=O)NC4)CC1 [Example 256]	16
CC1(C)c2cc(N3CCOC(C(C)(C)O)C3)ccc2Nc2c1cc(-c1cnc3cnccn13)c1c2C(=O)NC1 (centres unmarked) [Example 112]	4.67
CC1(C)c2cc(N3CCOCC3)ccc2Nc2c1cc(-c1cnc3n1CCC(O)C3)c1c2C(=O)NC1 (single isomer, unassigned) [Example 241]	10
COC1CCCn2c(-c3cc4c(c5c3CNC5=O)Nc3ccc(N5CCCOCC5)cc3C4(C)C)cnc21 (single isomer, unassigned) [Example 158]	37.6
Cc1ccc2c(-c3cc4c(c5c3CNC5=O)Nc3ccc(N5CCOC(C(C)(C)O)C5)cc3C4(C)C)cnn2c1 (single isomer, unassigned) [Example 95]	7.82
CC1(C)c2cc(N3CCOCC3)ccc2Nc2c1cc(-c1cnc3c(C#N)nccn13)c1c2C(=O)NC1 [Example 192]	19
CCOC1CCCn2c(-c3cc4c(c5c3CCNC5=O)Nc3ccc(N5CCOCC5)cc3C4(C)C)cnc21 (single isomer, unassigned) [Example 281]	18
COCC1(O)CCN(c2ccc3c(c2)C(C)(C)c2cc(-c4cnn5cccnc45)c4c(c2N3)C(=O)NC4)CC1 [Example 49]	12.7
CC1(C)c2cc(N3CCOCC3)ccc2Nc2c1cc(-c1cnc3nc(C(F)F)ccn13)c1c2C(=O)NC1 [Example 197]	11
CC1(C)c2cc(N3CCOC(C(C)(C)O)C3)ccc2Nc2c1cc(-c1cnc3n1CCCCC3)c1c2C(=O)NC1 (centres unmarked) [Example 123]	20.3
CC1(C)c2cc(N3CCO[C@@H](C(C)(C)O)C3)ccc2Nc2c1cc(-c1cnc3c(F)c(C#N)ccn13)c1c2C(=O)NC1 [Example 179]	6.9
COc1ccn2c(-c3cc4c(c5c3CNC5=O)Nc3ccc(N5CCOC(C(C)(C)O)C5)cc3C4(C)C)cnc2c1 (centres unmarked) [Example 110]	15.9
CCC1(C)c2cc(N3CCOCC3)ccc2Nc2c1cc(-c1cnc3c(OC)nccn13)c1c2C(=O)NC1 (single isomer, unassigned) [Example 212]	11
COc1ccn2c(-c3cc4c(c5c3CNC5=O)Nc3ccc(N5CCOCC5)cc3C4(C)C)cnc2c1 [Example 186]	7.9
CC1(C)c2cc(N3CCO[C@@H](C(C)(C)O)C3)ccc2Nc2c1cc(-c1cnn3cc(C(F)F)ccc13)c1c2C(=O)NC1 [Example 169]	6.4
Cc1ccn2c(-c3cc4c(c5c3CNC5=O)Nc3ccc(N5CCOCC5)cc3C4(C)C)cnc2n1 [Example 185]	2.2
